Source: the supplement of paper PMC10307832

Columns and labels:
Experiment in all cases: relative viability (nuclei count vs DMSO), 5 days (fraction); higher = more cells survive
BAM7 + AZD7762 = compound: CCOC1=CC=CC=C1N=NC2=C(NN(C2=O)C3=NC(=CS3)C4=CC=CC=C4)C [BAM7] + NC(=O)Nc1cc(-c2cccc(F)c2)sc1C(=O)N[C@H]1CCCNC1 [AZD7762] (partner 0.2 µM)
Method in brief: (§1)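 After 5 days of treatment, lung cancer cells in 1536-well plates were fixed and stained in a single step (final 0.05% Triton X-100, 1% formaldehyde, 1 ug/ml Hoechst) and their nuclei counted on 4× images. Treatment had been applied by pin tool the day after seeding as one drug alone or as a fixed anchor-drug dose with five library-drug doses (not always all listed) in √10 steps. Relative viability is the nuclei count of treated wells divided by that of vehicle wells, and values are medians of duplicate plates.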

BAM7 + Trametinib = compound: CCOC1=CC=CC=C1N=NC2=C(NN(C2=O)C3=NC(=CS3)C4=CC=CC=C4)C [BAM7] + CC(=O)Nc1cccc(-n2c(=O)n(C3CC3)c(=O)c3c(Nc4ccc(I)cc4F)n(C)c(=O)c(C)c32)c1 [Trametinib] (partner 0.02 µM)
Method in brief: as §1

[1] = compound: CCn1c(-c2nonc2N)nc2c(C#CC(C)(C)O)ncc(OC[C@H]3CCCNC3)c21 + N=C(N)NC(=N)NCCc1ccccc1 [Phenformin] (partner 250 µM)
Method in brief: as §1

BAM7 + Pictilisib = compound: CCOC1=CC=CC=C1N=NC2=C(NN(C2=O)C3=NC(=CS3)C4=CC=CC=C4)C [BAM7] + CS(=O)(=O)N1CCN(Cc2cc3nc(-c4cccc5[nH]ncc45)nc(N4CCOCC4)c3s2)CC1 [Pictilisib] (partner 1 µM)
Method in brief: as §1

| Cell Line | relative viability (BAM7 + AZD7762; first compound 0.5 µM) | relative viability (BAM7 + AZD7762; first compound 5 µM) | relative viability (BAM7 + AZD7762; first compound 15.81 µM) | relative viability (BAM7 + AZD7762; first compound 50 µM) | relative viability (BAM7 + Trametinib; first compound 0.5 µM) | relative viability (BAM7 + Trametinib; first compound 5 µM) | relative viability (BAM7 + Trametinib; first compound 15.81 µM) | relative viability (BAM7 + Trametinib; first compound 50 µM) | relative viability ([1]; first compound 0.01 µM) | relative viability ([1]; first compound 0.03162 µM) | relative viability ([1]; first compound 0.1 µM) | relative viability ([1]; first compound 0.3162 µM) | relative viability ([1]; first compound 1 µM) | relative viability (BAM7 + Pictilisib; first compound 0.5 µM) | relative viability (BAM7 + Pictilisib; first compound 5 µM) | relative viability (BAM7 + Pictilisib; first compound 50 µM) | relative viability (BAM7 + Pictilisib; first compound 15.81 µM) |
| --- | --- | --- | --- | --- | --- | --- | --- | --- | --- | --- | --- | --- | --- | --- | --- | --- | --- |
| NCI-H1975 | 0.725 | 0.763 | 0.642 | 0.632 | 0.329 | 0.366 | 0.332 | 0.415 | 0.4 | 0.394 | 0.393 | 0.389 | 0.352 | 0.29 | 0.259 | 0.283 |  |
| CAL-12T | 0.589 | 0.714 | 0.557 | 0.609 | 0.381 | 0.333 | 0.303 | 0.384 | 0.506 | 0.579 | 0.588 | 0.554 | 0.469 | 0.467 | 0.526 | 0.466 | 0.413 |
| NCI-H1623 |  |  |  |  |  |  |  |  | 0.604 | 0.526 | 0.6 | 0.56 | 0.473 |  |  |  |  |
| HCC-44 | 1.03 | 0.964 | 1.05 | 0.983 | 1.07 | 1.11 | 0.983 | 1.12 | 0.19 | 0.183 | 0.194 | 0.184 | 0.189 | 0.593 | 0.65 | 0.634 | 0.534 |
| EKVX | 0.871 | 0.617 | 0.668 | 0.704 | 0.474 | 0.301 | 0.294 | 0.308 | 0.232 | 0.231 | 0.217 | 0.217 | 0.195 | 0.458 | 0.512 | 0.415 | 0.335 |
| NCI-H1651 | 0.444 | 0.46 | 0.473 | 0.45 | 0.859 | 0.842 | 0.835 | 0.862 | 0.353 | 0.387 | 0.382 | 0.28 | 0.337 | 0.497 | 0.64 | 0.541 | 0.7 |
| NCI-H1944 | 0.51 | 0.525 | 0.508 | 0.623 | 0.444 | 0.433 | 0.434 | 0.439 | 0.196 | 0.196 | 0.207 | 0.181 | 0.196 | 0.344 | 0.384 | 0.346 | 0.332 |
| NCI-H1703 | 0.14 | 0.115 | 0.122 | 0.132 |  |  |  |  |  |  |  |  |  | 0.23 | 0.262 | 0.256 |  |
| Calu-6 |  |  |  |  |  |  |  |  |  |  |  |  |  | 1.01 | 0.98 | 0.823 | 0.893 |
| EBC-1 |  |  |  |  |  |  |  |  |  |  |  |  |  | 0.359 | 0.375 | 0.307 | 0.328 |
| SW 1573 |  |  |  |  | 0.633 | 0.592 | 0.541 | 0.528 | 0.344 | 0.274 | 0.24 | 0.209 | 0.194 | 0.583 | 0.48 | 0.483 | 0.457 |
| A-427 | 0.743 | 0.848 | 0.802 | 0.737 | 0.765 | 0.809 | 0.752 | 0.911 | 0.315 | 0.387 | 0.263 | 0.339 | 0.326 | 0.557 | 0.75 | 0.72 | 0.676 |
